Values quoted from earlier work in patent US20060251750A1, “Soy formulations and their use in skin care” (priority 2002, published 2006).

Assays:
[1] = tested on: UV radiation; conditions: lotions
[2] = tested on: squamous cell carcinomas; conditions: daily topical applications of lotions
[3] = tested on: photocarcinogenesis; conditions: hairless mice; both topical and oral administration

## Oc1ccc(C2=Cc3ccc(O)cc3OC2)cc1 [dehydroequol]
[1]
  inflammatory edema reactions induced by UV radiation: reduce
  suppression of contact hypersensitivity induced by UV radiation: reduce

## Oc1ccc([C@H]2COc3cc(O)ccc3C2)cc1 [equol]
[2]
  proportion of tumors progressing from benign papillomas to malignant squamous cell carcinomas: reduce
  size of these carcinomas: reduce
[1]
  inflammatory edema reactions induced by UV radiation: reduce
  suppression of contact hypersensitivity induced by UV radiation: reduce

## O=c1c(-c2ccc(O)cc2)coc2cc(O)cc(O)c12 [genistein]
[3]
  initiation and promotion of photocarcinogenesis: inhibit
  tumor incidence and multiplicity: reduction
[1]
  inflammatory edema reactions induced by UV radiation: reduce
  suppression of contact hypersensitivity induced by UV radiation: reduce

## isoequol
[1]
  inflammatory edema reactions induced by UV radiation: reduce
  suppression of contact hypersensitivity induced by UV radiation: reduce
